In PubChem BioAssay AID743409 (Vanderbilt Specialized Chemistry Center, 2014):
Where “and” joins values, the source holds several entries; their conditions need not be identical. Equal entries are not always repeated. Calls of active or inactive are those of the source. No rule for the calls is given here.

Biological target: Phospholipase D2 (Homo sapiens) (UniProt O14939)
Assay: inhibitors of cellular PLD2 activity, cell-based (AID 743409)
Conditions: cellular PLD2 isoenzyme activity, stronger effect = higher value

Sequence of Phospholipase D2 (Homo sapiens) (O14939 whole entry, looked up): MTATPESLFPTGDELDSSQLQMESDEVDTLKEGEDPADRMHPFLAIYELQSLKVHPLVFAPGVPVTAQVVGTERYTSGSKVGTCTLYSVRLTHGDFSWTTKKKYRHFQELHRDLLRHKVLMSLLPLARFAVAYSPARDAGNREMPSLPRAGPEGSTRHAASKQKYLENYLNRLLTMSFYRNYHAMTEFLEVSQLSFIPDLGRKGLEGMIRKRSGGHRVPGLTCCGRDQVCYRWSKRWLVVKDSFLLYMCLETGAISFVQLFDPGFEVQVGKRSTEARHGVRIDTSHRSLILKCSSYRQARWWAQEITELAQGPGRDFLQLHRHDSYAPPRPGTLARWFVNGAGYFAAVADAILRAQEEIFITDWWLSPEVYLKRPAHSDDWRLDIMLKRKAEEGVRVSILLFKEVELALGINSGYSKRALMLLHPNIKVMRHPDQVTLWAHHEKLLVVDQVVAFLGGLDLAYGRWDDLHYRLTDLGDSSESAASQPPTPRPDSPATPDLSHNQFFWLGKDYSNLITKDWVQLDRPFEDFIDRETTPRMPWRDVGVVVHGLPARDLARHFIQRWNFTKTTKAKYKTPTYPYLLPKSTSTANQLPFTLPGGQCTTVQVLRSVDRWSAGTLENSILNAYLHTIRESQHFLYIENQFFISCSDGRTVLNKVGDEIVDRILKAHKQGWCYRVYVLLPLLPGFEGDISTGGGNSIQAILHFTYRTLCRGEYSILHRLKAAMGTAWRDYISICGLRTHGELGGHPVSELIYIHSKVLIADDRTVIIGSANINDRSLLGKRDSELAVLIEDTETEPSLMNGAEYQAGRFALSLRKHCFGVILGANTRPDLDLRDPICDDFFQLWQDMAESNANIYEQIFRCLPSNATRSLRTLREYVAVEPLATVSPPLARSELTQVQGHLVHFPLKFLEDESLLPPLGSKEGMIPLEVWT

Compound	inhibition (at 2 µM)	inhibition (at 20 µM)
Cc1ccc(S(=O)(=O)NCCN2CCC3(CC2)C(=O)NCN3Cc2cccnc2)cc1	10% (inactive)	
O=C(NCCN1CCC2(CC1)C(=O)NCN2Cc1cccnc1)c1ccc2ccccc2n1	31% (inactive)	
COc1cccc(C(=O)N2CNC(=O)C23CCN(CCNC(=O)c2ccc4ccccc4c2)CC3)c1		85%
O=C(NCCN1CCC2(CC1)C(=O)NCN2Cc1cccnc1)c1c(Cl)cncc1Cl	3% (inactive)	
O=C(NCCN1CCC2(CC1)C(=O)NCN2Cc1cccnc1)c1ccc(SC(F)(F)F)cc1	8% (inactive)	
O=C(NCCN1CCC2(CC1)C(=O)NCN2Cc1cccnc1)c1ccc(Cl)c(Cl)c1	63% (inactive)	
O=C(NCCN1CCC2(CC1)C(=O)NCN2Cc1cccnc1)c1ccc(F)cc1C(F)(F)F	0% (inactive)	
O=C(NCCN1CCC2(CC1)C(=O)NCN2c1cccnc1)c1cc2cc(F)ccc2[nH]1	12% (inactive)	
COc1cc(C(=O)NCCN2CCC3(CC2)C(=O)NCN3Cc2cccnc2)cc(OC)c1OC	15% (inactive)	
O=C(NCCN1CCC2(CC1)C(=O)NCN2Cc1cccnc1)c1ccnc2ccccc12	0% (inactive)	
O=C(NCCN1CCC2(CC1)C(=O)NCN2c1cccnc1)c1cc(F)c(F)c(F)c1	0% (inactive)	
O=C(NCCN1CCC2(CC1)C(=O)NCN2Cc1cccnc1)c1ccc(F)cc1	11% (inactive)	
O=C(NCCN1CCC2(CC1)C(=O)NCN2c1cccnc1)c1ccc(F)cc1	2% (inactive)	
O=C(NCCN1CCC2(CC1)C(=O)NCN2c1cncc(F)c1)c1ccc(F)c(F)c1	0% (inactive)	
O=C(NCCN1CCC2(CC1)C(=O)NCN2Cc1cccnc1)c1ccc2ccccc2c1	80%	100%
O=C(NCCN1CCC2(CC1)C(=O)NCN2Cc1ccncc1)c1ccc2ccccc2c1		100%
O=C(NCCN1CCC2(CC1)C(=O)NCN2Cc1cccnc1)c1cccc(Cl)c1	21% (inactive)	
O=C(NCCN1CCC2(CC1)C(=O)NCN2c1cncc(F)c1)c1cc(F)c(F)c(F)c1	2% (inactive)	
Cc1nc2sc(C(=O)NCCN3CCC4(CC3)C(=O)NCN4Cc3cccnc3)c(N)c2c(C)c1C	8% (inactive)	
O=C(NCCN1CCC2(CC1)C(=O)NCN2c1cncc(F)c1)c1ccc(Br)cc1	15% (inactive)	
O=C(NCCN1CCC2(CC1)C(=O)NCN2c1cccnc1)c1ccc(F)c(F)c1	7% (inactive)	
O=C(NCCN1CCC2(CC1)C(=O)NCN2Cc1cccnc1)c1cc2cc(F)ccc2[nH]1	100%	
O=C(NCCN1CCC2(CC1)C(=O)NCN2Cc1cccnc1)c1cc(F)c(F)c(F)c1	10% (inactive)	
O=C(NCCN1CCC2(CC1)C(=O)NCN2C(=O)C1CCC1)c1ccc2ccccc2c1		100%
Cc1cc(C)c2cc(C(=O)NCCN3CCC4(CC3)C(=O)NCN4Cc3cccnc3)[nH]c2c1	35% (inactive)	
O=C(NCCN1CCC2(CC1)C(=O)NCN2c1ccnc(Cl)c1)c1ccc2ccccc2c1	11% (inactive)	

Compound	inhibition (at 2 µM)	inhibition (at 20 µM)
O=C(NCCN1CCC2(CC1)C(=O)NCN2Cc1cccnc1)c1ccc(F)cc1Cl	0% (inactive)	
O=C(NCCN1CCC2(CC1)C(=O)NCN2Cc1cccnc1)c1nccc2ccccc12	32% (inactive)	
O=C(NCCN1CCC2(CC1)C(=O)NCN2Cc1cccnc1)c1cccc(C(F)(F)F)c1	0% (inactive)	
O=C(NCCN1CCC2(CC1)NCNC2=O)c1ccc2ccccc2c1		22% (inactive)
O=C(NCCN1CCC2(CC1)C(=O)NCN2Cc1cccnc1)c1cc2cccnc2[nH]1	19% (inactive)	
O=C(NCCN1CCC2(CC1)C(=O)NCN2Cc1ccc(Cl)cc1)c1ccc2ccccc2c1		96%
O=C(NCCN1CCC2(CC1)C(=O)NCN2Cc1cccnc1)c1nc(-c2ccc(F)cc2)no1	17% (inactive)	
O=C(NCCN1CCC2(CC1)C(=O)NCN2Cc1ccccc1Cl)c1ccc2ccccc2c1		100%
O=C(NCCN1CCC2(CC1)C(=O)NCN2c1cncc(Br)c1)c1ccc2ccccc2c1	26% (inactive)	
O=C(NCCN1CCC2(CC1)C(=O)NCN2C(=O)c1ccccc1)c1ccc2ccccc2c1		82%
O=C(NCCN1CCC2(CC1)C(=O)NCN2Cc1cccc(OC(F)(F)F)c1)c1ccc2ccccc2c1		46% (inactive)
O=C(NCCN1CCC2(CC1)C(=O)NCN2CC1CC1)c1ccc2ccccc2c1		100%
O=C(NCCN1CCC2(CC1)C(=O)NCN2c1cccnc1)c1ccc2ccccc2c1	0% (inactive)	
O=C(NCCN1CCC2(CC1)C(=O)NCN2Cc1cccc(Cl)c1)c1ccc2ccccc2c1		100%
O=C(NCCN1CCC2(CC1)C(=O)NCN2Cc1cccnc1)c1cccs1	0%	
Cn1cc(C(=O)NCCN2CCC3(CC2)C(=O)NCN3Cc2cccnc2)c2ccccc21	31% (inactive)	
O=C(NCCN1CCC2(CC1)C(=O)NCN2C(=O)c1cccc(F)c1)c1ccc2ccccc2c1		84%
O=C(NCCN1CCC2(CC1)C(=O)NCN2Cc1ccccc1)c1ccc2ccccc2c1		99%
O=C(NCCN1CCC2(CC1)C(=O)NCN2Cc1cccnc1)c1ccc2c(c1)C(=O)NC2=O	0% (inactive)	
O=C(NCCN1CCC2(CC1)C(=O)NCN2c1cncc(F)c1)c1ccc2ccccc2c1	18% (inactive)	
O=C(NCCN1CCC2(CC1)C(=O)NCN2c1cncc(F)c1)c1cc2cc(F)ccc2[nH]1	15% (inactive)	
O=C(NCCN1CCC2(CC1)C(=O)NCN2Cc1cccnc1)c1ccc(F)cc1F	0% (inactive)	
Cn1c(C(=O)NCCN2CCC3(CC2)C(=O)NCN3Cc2cccnc2)cc2ccccc21	14% (inactive)	
O=C(NCCN1CCC2(CC1)C(=O)NCN2Cc1cccnc1)c1ccc(F)c(F)c1	22% (inactive)	
O=C(NCCN1CCC2(CC1)C(=O)NCN2Cc1cccnc1)c1ccc(C(F)(F)F)cc1	5% (inactive)	
O=C(NCCN1CCC2(CC1)C(=O)NCN2Cc1cccc2ccccc12)c1ccc2ccccc2c1		100%

Compound	inhibition (at 2 µM)	inhibition (at 20 µM)
O=C(NCCN1CCC2(CC1)C(=O)NCN2c1ccnc(F)c1)c1ccc2ccccc2c1	15% (inactive)	
O=C(NCCN1C=CC2(CC1)C(=O)NCN2Cc1cccnc1)c1cccc2nsnc12 (centres undefined)	4% (inactive)	
O=C(NCCN1CCC2(CC1)C(=O)NCN2Cc1ccccc1Br)c1ccc2ccccc2c1		100%
O=C(NCCN1CCC2(CC1)C(=O)NCN2Cc1cccnc1)c1ccc2ccccc2c1Br	61%	
O=C(NCCN1CCC2(CC1)C(=O)NCN2Cc1cccnc1)c1ccc2cc(F)ccc2c1	36% (inactive)	
O=C(NCCN1CCC2(CC1)C(=O)NCN2Cc1ccccc1F)c1ccc2ccccc2c1		65% and 100%
O=C(NCCN1CCC2(CC1)C(=O)NCN2Cc1cccnc1)[C@@H]1C[C@H]1c1ccccc1	20% (inactive)	
O=C(NCCN1CCC2(CC1)C(=O)NCN2Cc1cccnc1)c1cccc(F)c1	14% (inactive)	
O=C(NCCN1CCC2(CC1)C(=O)NCN2Cc1ccccn1)c1ccc2ccccc2c1		100%
O=C(NCCN1CCC2(CC1)C(=O)NCN2Cc1cccnc1)c1ccc(Cl)cc1Cl	0% (inactive)	
O=C(NCCN1CCC2(CC1)C(=O)NCN2C(=O)C1CC1)c1ccc2ccccc2c1		100%
O=C(NCCN1CCC2(CC1)C(=O)NCN2c1ccc(C(F)(F)F)nc1)c1ccc2ccccc2c1	4% (inactive)	
O=C(NCCN1CCC2(CC1)C(=O)NCN2c1cncc(F)c1)c1ccc(F)cc1	3% (inactive)	
Cc1cc(Br)cnc1C(=O)NCCN1CCC2(CC1)C(=O)NCN2Cc1cccnc1	1% (inactive)	
O=C(NCCN1CCC2(CC1)C(=O)NCN2Cc1cccnc1)c1ccccc1F	0% (inactive)	
O=C(NCCN1CCC2(CC1)C(=O)NCN2Cc1cccnc1)c1cc(F)cc(F)c1	4% (inactive)	
O=C(NCCN1CCC2(CC1)C(=O)NCN2c1cccnc1)c1ccc(Br)cc1	0% (inactive)	
O=C(NCCN1CCC2(CC1)C(=O)NCN2Cc1cccnc1)c1cccc2cccnc12	42% (inactive)	
O=C(NCCN1CCC2(CC1)C(=O)NCN2Cc1cccnc1)c1c(F)ccc(Cl)c1F	18% (inactive)	
O=C(NCCN1CCC2(CC1)C(=O)NCN2Cc1cccnc1)c1cc2ccccc2[nH]1	100%	
O=C(NCCN1CCC2(CC1)C(=O)NCN2Cc1cccnc1)c1ccc(Br)cc1	48% (inactive)	
O=C(NCCN1CCC2(CC1)C(=O)NCN2Cc1cccnc1)c1sc2ncccc2c1-n1cccc1	5% (inactive)	
Cc1cc(N2CNC(=O)C23CCN(CCNC(=O)c2ccc4ccccc4c2)CC3)ccn1	0% (inactive)	
O=C(NCCN1CCC2(CC1)C(=O)NCN2Cc1cccnc1)c1c[nH]c2ccccc12	23% (inactive)	
O=C(NCCN1CCC2(CC1)C(=O)NCN2Cc1cccnc1)c1cc2ccccc2o1	73%	
O=C(NCCN1CCC2(CC1)C(=O)NCN2Cc1cccnc1)c1ccc(Cl)cc1F	18% (inactive)	
